Experimental data taken from patent EP2229935A1, “Peptide derivatives or pharmaceutically acceptable salts thereof, method for producing the same, use of said derivatives and pharmaceutical composition” (Nebolsin, Vladimir Evgenievich, priority 1997, dated 1999).
“And” between values parts separate entries of the source, which are not always exact repeats. Equal values may be shown once. Marks after values point to notes of the source that are not given here.

Experiments:
white mongrel male rats = assay: Paw edema induced by Freund's complete adjuvant; type: in vivo
Procedure: Experiment was carried out on white mongrel male rats weghing 280-300 g. The model of paw edema induced by Freund's complete adjuvant (FCA), was reproduced according to the method of Ezamuzie and Umezurike [Ezamuzie Ch., Umezurike C.C. Effect of histamine H2-receptor antagonists on acute inflammatory of the rat paw oedema. J. Pharmacol. (1989), Vol. 41, pp. 261-265]. Paw volume measurement was done using a plethysmograph (Ugo Basile). Inhibition of inflammatory reaction expressed in percent, as calculated according to the formula: 100-[(R-L(exper.))/(L):(R-L(control))/(L)x100](%) [formula] where R - the right paw volume, L - the left paw volume.
Each group included 10 animals.
Group of animals: • Group 1 - control, animals were administered 0.5 ml of 1% starch solution. • Group 2 - animals were administered the compound XLVIII. • Group 3 - animals were administered the compound III. • Group 4 - animals were administered Naproxene.

[1] = test system: lipid peroxidation (LP) products; assay: Antioxidant activity in vivo: acute toxic hepatic lesion with CCl4; settings: rats, CCl4 3 days; for Liver, MDA, nM/mg of tissue / Liver, diene conjugates, E232/mg of tissue / Liver, diene ketones, trienes E278/mg of tissue: intragastral
Procedure: Antioxidant activity was studied in an in vivo experiment on the model of acute toxic hepatic lesion with carbon quadrichloride (CCl4).
Experiment was carried out on 40 mongrel male rats with initial body mass 190-200 g fed a standard vivarium ration. Each group included 10 animals. Hepatic lesion (experimental hepatitis) was induced in animals by intragastral administration of 0.25 ml per 100 g of body mass CCl4 in the form of 50% solution in vaseline oil for 3 days [Vengerovsky A.I., Chuchalin V.S., Pauls O.V., Saratikov A.S. Effect of hepatoprotectors on lipid metabolism in hepatitis induced by Ccl4. Bulletin of Experimental Biology (1987), No 4, pp. 430-432]. […] Animals of the control group were administered CCl4 as described above (group 2). Intact animals were orally given normal saline in an equivalent amount (group 1).
The content of primary lipid peroxidation (LP) products - diene conjugates, diene ketones and trienes - were determined using the published method [Volchegorsky I.A., Nalimov A.G., Yarovinsky B.G., Lifshits R.I. Comparison of different approaches to determining lipid peroxidation products in heptane-isopropanolic blood extracts. Voprosy Meditsinskoy Chimii (Problems of Medical Chemistry) (1989),No 1, pp. 127-131]. Content calculation of LP products was done correlating the values of respective extinctions with 1 ml of test sample.
The amount of LP final product - malonic dialdehyde (MDA) - was determined by the test with thiobarbituric acid (TBA) [Korobeinikova E.N. Modification of lipid peroxidation products in the reaction with thiobarbituric acid. Laboratornoye delo (Laboratory Matter) (1989), No 7, pp. 8-10]. Concentration of TBA-active product was calculated using regression equation. MDA content in the liver of experimental animals was assessed using the modified method [Stalnaya I.D., Garishvili T.G. The method of determining malonic dialdehyde using thiobarbituric acid. In: Modem methods in biochemistry. Moscow, Meditsina publishers. (1977), pp. 66-69], performing preliminary extraction of lipids according to Folch [Cates M. Technology of Lipidology. Moscow, Mir publishers (1975), pp. 74-76].

P-450 and B5 cytochromes = assay: Hepatic content of P-450 and B5 cytochromes (microsomal liver fraction); type: in vivo, guinea pigs; settings: guinea pig liver microsomes; administered three times 72, 48 and 24 hours before
Procedure: Change in hepatic monooxygenase system was studied on mongrel male guinea pigs with initial mass 250-300 g; each group included 12 animals. […]. The content of P-450 and […] cytochromes was measured according to the published method [Omura T., Scato R. The monooxide binding pigment of liver microsomes. 11. Solubilization, purification and properties. J. Chem. (1964), Vol. 239, pp. 2379-2385] in microsomal liver fraction, isolated using differential centrifugation method [Ahokas J., Pelkonen O., Karkin N. Charcaterisation of BP-hydroxylase of Trout-liver. Cancer Res. (1977), Vol. 37, pp. 3737-3743]. The priority method {Izotov M.V., Scherbakov V.M., Devichensky V.M. et al. The method of determining the content of P-450 cytochrome isoenzymes in liver microsomes. The inventor's certificate No 1,488,738. B.I. (1989), No 3.-6.06.09, ICI, 01. - No 33/15, No 33/48]. Microsomal protein content was determined using the modified Lowry method [Hartree E. Determination of protein: a modification of the Lowry method, that gives a linear photometric responces. Ann. Biochem. (1972), Vol. 48, pp. 422-427].

Wistar rats = assay: Non-infectious pulmonary granulomatosis model (aerosol Sephadex A-25); settings: intragastral 50 mg/kg once daily
Procedure: Antiinflammatory and immunomodulating effect of the compound III with intragastral administration was studied on the non-infectious pulmonary granulomatosis model.
20 female 4 months old Wistar rats weighing 200-220 g were used in exepriment.
Sephadex A-25 at a dose 5 mg per 1 kg of body mass, as administered to rats under ether anesthesia using an original dosing device for inhalation administering dry powders manufactured at the Scientific-Research Institute for Medical Instrument-Making. […] Compound III was administered intragastrally using a gastric probe at a dose 50 mg per 1 kg of body mass and immediately after that, single aerosol administration of Sephadex A-25 was performed according to the earlier described technique. Then compound III was administered intragastrally once daily for 6 days at a dose 50 mg/kg of body mass in the form of water solution. Rats were examined by day 7 after commencement of administering compound III and Sephadex A-25.
Bronchoalveolar lavage was obtained under Hexenal anesthesia. Cytosis, i.e. absolute number of cells in 1 ml was determined in the bronchoalveolar lavage fluid. Endopulmonal cytogram (in percent) was calculated in the smears stained according to Romanovsky-Gimza. […] Histological examination of lungs stained with hematoxylin and eosine was performed. Volume density of alveolitis and emphysema was determined using the point count method.

mongrel white male mice = assay: Delayed type hypersensitivity induced by sheep red blood cells; type: in vivo; settings: DTH to sheep red blood cells; for Difference in paw masses: 24 hours; for Percent to the control / Reaction index, percent: oral
Procedure: Studies were cartried out on mongrel white male mice with initial body mass 22-24 g. Each group included 10 animals. Mice were sensitized with intravenous injection of the suspension of 2 x 10^5 sheep red blood, cells in 0.05 ml normal saline. By day 5, the suspension of 10^8 sheep red blood cells in 0.05 ml normal saline was injected into the hind paw pad. As a control, the solvent, i.e. normal saline in equivalent amount, was injected. Reaction intensity was assessed in 24 hours by difference in the paw masses of animals. Reaction index = (Mt -Mc)/(Mc)x 100 [formula]
The test compound III was orally administered for three days at doses 50 and 500 µg/kg according to the dosage regimen - days 3, 4 and 5, day 5 - administration of the anaphylaxis-provoking dose.

[2] = Wistar rats, day 7 after aerosol Sephadex A-25

For `O=C(O)CCCC(=O)NCCc1c[nH]cn1` [compound III, N-GLUTARYLHISTAMINE], which “Volume of paws (conditional units) Right” value (white mongrel male rats) is on record?
Its value is 1.85 ± 0.62 conditional units.

What about the “Volume of paws (conditional units) left” value (white mongrel male rats) of the same compound?
Its value is 1.25 ± 0.34 conditional units.

And the “Blood serum, MDA, nM/ml” value ([1]; intragastral 3 days with CCl4, 50 µg/kg)?
The value was 4.05 ± 0.198*^2 nM/ml.

What about the “Blood serum, MDA, nM/ml” value ([1]; intragastral 3 days with CCl4, 500 µg/kg) of the same compound?
The value was 3.89 ± 0.11**^2 nM/ml.

And the “Liver, MDA, nM/mg of tissue” value ([1]; 50 µg/kg)?
Its value is 4.98 ± 0.13**^2 nM/mg of tissue.

And the “Liver, diene conjugates, E232/mg of tissue” value ([1]; 50 µg/kg)?
The value was 16.25 ± 0.61 E232/mg of tissue.

What about the “Liver, diene ketones, trienes E278/mg of tissue” value ([1]; 50 µg/kg) of the same compound?
Its value is 8.42 ± 0.25**^2 E278/mg of tissue.

What about the “Liver, MDA, nM/mg of tissue” value ([1]; 500 µg/kg) of the same compound?
Its value is 5.01 ± 0.17**2 nM/mg of tissue.

And the “Liver, diene conjugates, E232/mg of tissue” value ([1]; 500 µg/kg)?
The value was 15.89 ± 0.38 E232/mg of tissue.

And the “Liver, diene ketones, trienes E278/mg of tissue” value ([1]; 500 µg/kg)?
The value was 8.24 ± 0.19*^2 E278/mg of tissue.

What about the “B5 /P-450” value (P-450 and B5 cytochromes) of the same compound?
The value was 0.97*.

What about the “B5 cytochrome nM/mg of protein” value (P-450 and B5 cytochromes) of the same compound?
Its value is 1.00 ± 0.03 nM/mg of protein.

What about the “P-450B cytochromes nM/mg of protein” value (P-450 and B5 cytochromes) of the same compound?
Its value is 0.72 ± 0.02 nM/mg of protein.

And the P-450B/p-450L (P-450 and B5 cytochromes)?
The P-450B/p-450L was 2.32**.

And the “Volume density in percent: Alveolitis” value (Wistar rats; [2])?
The value was 3.8±0.1% and 3.8 ± 1.0%.

What about the “Volume density in percent: Emphysema” value (Wistar rats; [2]) of the same compound?
Its value is 11.2±3.2%.

And the “Cytosis (absolute number of cells in 1 ml)” value (Wistar rats; bronchoalveolar lavage, day 7)?
The value was 0.169 ± 0.054.

And the “Endopulmonary cytogram in percent: Lymphocytes” value (Wistar rats; bronchoalveolar lavage, day 7)?
Its value is 7.6 ± 1.5%.

What about the “Endopulmonary cytogram in percent: Macrophages” value (Wistar rats; bronchoalveolar lavage, day 7) of the same compound?
Its value is 75.2 ± 4.5%.

And the “Endopulmonary cytogram in percent: Neutrophils” value (Wistar rats; bronchoalveolar lavage, day 7)?
The value was 16.8 ± 2.6%.

And the “Volume density of lymphoid follicles in percent” value (Wistar rats; lymphoid tissue associated with bronchi, day 7)?
Its value is 34.7 ± 10.3%.

And the “Difference in paw masses” value (mongrel white male mice; oral days 3, 4, 5, 50 µg/kg)?
Its value is 16.7 ± 1.9 g.

What about the “Difference in paw masses” value (mongrel white male mice; oral days 3, 4, 5, 500 µg/kg) of the same compound?
The value was 17.2 ± 1.3 g.

And the “Percent to the control” value (mongrel white male mice; 50 µg/kg)?
The value was 75.5%.

What about the “Reaction index, percent” value (mongrel white male mice; 50 µg/kg) of the same compound?
Its value is 10.3 ± 1.1%.

What about the “Percent to the control” value (mongrel white male mice; 500 µg/kg) of the same compound?
Its value is 79.3%.

What about the “Reaction index, percent” value (mongrel white male mice; 500 µg/kg) of the same compound?
Its value is 10.8 ± 0.8%.
